# Source: patent US20260284041A1, “PREVENTIVE OR THERAPEUTIC AGENT FOR NEURODEGENERATIVE DISEASE” (MEDILABO RFP, INC., priority 2023, published 2026)
# Experiments:
# C9orf72 HRE-derived RNAs = settings: in vitro; cited from earlier work
# PKR = settings: reported in NPL 31; cited from earlier work
# FTD/ALS model mice [1] = assay: Immunohistochemical analysis of brain sections (Test Example 2); assay type: in vivo, mouse; settings: single agents 0.04 mg/day, combination 0.02+0.02 mg/day, nasal 1 month
# Protocol: (§1) Age-matched non-Tg […] mates received only CMC.
# After the behavioral test, each group was divided into two groups: one for immunohistochemical analysis and the other for future biochemical analysis. Immunohistochemical staining was performed as described above. For staining of double-stranded RNA-dependent protein kinase (PKR), phosphorylated TDP-43, synaptophysin, sections were boiled in 10 mM citrate buffer solution (pH6) for 30 min to expose the antigens. The sections were blocked overnight with 10% calf serum, and then the resultant sections were stained with antibodies for DNA/RNA G-quadruplex (BG4; Absolute antibody, Cleveland, UK), phospho-PKR (Thr446) (MilliporeSigma, Burlington, MA, USA), poly-GA, poly-GP (Cosmo Bio Co., Ltd., Tokyo, Japan), pSer409/410-TDP-43 (Cosmo Bio Co., Ltd.), and synaptophysin (SVP-38; Sigma-Aldrich, St. Luis, MO, USA). Only synaptophysin was stained with a biotin-labeled secondary antibody (Vector Laboratories, Burlingame, CA, USA), a horseradish peroxidase (HRP)-labeled avidin-biotin complex (Vector Laboratories), HRP substrate, diaminobenzidine (DAB), or an FITC-labeled secondary antibody (The Jackson Laboratory). […] Neuropathologies were evaluated by measuring the staining intensity or area or by counting positive puncta or cells in a constant area in each photograph using NIH ImageJ software.
# FTD/ALS model mice [2] = assay: Morris water maze test after nasal rifampicin and/or resveratrol (Test Example 2); assay type: in vivo, mouse; settings: 1 month, 7- to 8-month-old mice, single agents 0.04 mg/day, combination 0.02 mg + 0.02 mg/day, FIG. 10
# From the text: FVB/NJ-Tg(C9orf72)500Lpwr/J mice (FTD/ALS model mice) were purchased from The Jackson Laboratory (Bar Harbor, ME, USA). The mouse strain was generated as a model for the C9orf72-associated FTD/ALS expressing the human C9orf72 gene with about 500 hexanucleotide (GGGGCC) repeats using a bacterial artificial chromosome (BAC) vector. Transgenic (Tg) mice were crossed with wild-type FVB/NJcl mice, and the transgene was maintained as a heterozygote at our animal facility.
# as §1
# After administration for one month, the cognitive function of the mice was assessed in the Morris water maze test as described above.
# BDNF = settings: stated in discussion, no method given; cited from earlier work
# [3] = cited from earlier work
# [4] = test system: FTD/ALS model mice (C9-500 mice); assay: Morris water maze test after nasal rifampicin (Test Example 1); assay type: in vivo, mouse; settings: nasal 0.1 mg/day for 1 month; Tg mice 4.5 to 5 months old at start; vs CMC-treated Tg (p=0.0271, FIG. 4)
# From the text: FVB/NJ-Tg(C9orf72)500Lpwr/J mice were purchased from The Jackson Laboratory (Bar Harbor, ME, USA). The mouse strain was generated as a model for the C9orf72-linked FTD/ALS expressing the human C9orf72 gene with 500 hexanucleotide (GGGGCC) repeats (hereinafter, it is also described as “FTD/ALS model mice”) using a bacterial artificial chromosome (BAC) vector. Transgenic (Tg) mice were crossed with wild-type FVB/NJcl mice, and the transgene was maintained as a heterozygote at the animal facility in our company.
# The cognitive function of the mice was assessed in a Morris water maze test at the age of 4.5 months, and the motor function of the mice was assessed in the rotarod and inverted screen tests at the age of 4.5 months and at the age of 12 months in an above-described manner.
# (§2) 4-and-a half to 5-month-old FTD/ALS model mice were divided into two groups. […] Non-Tg littermates were treated with CMC alone. […] After the behavioral test, each group was divided into two groups: one group for immunohistochemical analysis and the other group for future biochemical analysis. For immunohistochemical analysis, brain sections were prepared as described above, while for biochemical analysis, whole brains were removed and frozen at −80° C. until use.
# [5] = test system: (GGGGCC)4 oligonucleotides; assay: Gel shift assay for G-quadruplex; assay type: biochemical; settings: 1 mM rifampicin, 5 μM DNA, 100 mM KCl; FIG. 8A
# Protocol: The gel shift assay to detect G-quadruplex formation was performed. Sense (GGGGCC)4, antisense (GGCCCC)4, and Control (ATGC)6 oligonucleotides were synthesized and solubilized to 100 μM in 0.89 M of Tris-borate buffer, pH8.3 containing 0.02 M of EDTA (TBE). […] The mixtures were incubated at 98° C. for 3 min and slowly cooled to room temperature. The samples were mixed with Blue/Orange Loading Dye (Promega Corporation, Madison, WI, USA) and subjected to native PAGE with 20% polyacrylamide gel (Novex TBE Gels, Invitrogen, Carlsbad, CA, USA) and TBE running buffer containing 50 mM KCl. The gels were stained with SYBR Gold nucleic acid gel stain (Invitrogen) for 10 min, and images were acquired using an ImageQuant LAS 500 image analyzer (GE Healthcare, Hino, Japan).
# phospho-PKR (Thr446) = assay: Immunohistochemical studies of phosphorylated PKR (Test Example 1); assay type: in vivo, mouse; settings: PFC and MC; nasal 0.1 mg/day for 1 month; FIG. 8B
# Protocol: as §2
# [6] = test system: FTD/ALS model mice (C9-500 mice); assay: Double staining for RNA foci and cytoplasmic inclusions (Test Example 1); assay type: in vivo, mouse; settings: PFC and MC; nasal 0.1 mg/day for 1 month; FIG. 6
# From the text: To examine the formation of nuclear and cytoplasmic inclusions, the sections were double stained with antibodies to G-quadruplex and hnRNP H1 (Proteintech, Rosemont, IL, USA) without pretreatment for RNA foci, and pSer409/410-TDP-43 and amyloidogenic protein oligomers (F11G3; Sigma-Aldrich) after pretreatment at pH6 for TDP-43 oligomer inclusions. For DPR inclusions, the sections were double-stained with antibodies to poly-GA, poly-GP, poly-GR, and SQSTM1/p62 (A-6; Santa Cruz Biotechnology, Dallas, TX, USA) without pretreatment. After staining, FITC- and rhodamine-labeled secondary antibodies (Jackson Laboratory) were used. The specimens were then treated with TrueBlack Plus Lipofuscin (Biotium, Fremont, CA, USA) to quench the autofluorescence and mounted using a Vectashield vibrance antifade mounting medium with DAPI (Vector Laboratories). Images of the stained sections were taken with a BZ-X800 fluorescence microscope, and cells having inclusion bodies were counted in a certain area.
# as §2
smiles,measurement,setting,value
CC(=O)O.N [ammonium acetate],RNA gelation and RNA foci formation,C9orf72 HRE-derived RNAs,inhibited
COc1cccc2c1C(=O)c1c(O)c3c(c(O)c1C2=O)C[C@@](O)(C(=O)CO)C[C@@H]3O[C@H]1C[C@H](N)[C@H](O)[C@H](C)O1 [doxorubicin],RNA gelation and RNA foci formation,C9orf72 HRE-derived RNAs,inhibited
CN(C)C(=N)N=C(N)N [metformin],RAN translation / PKR phosphorylation and phenotype of C9-500 mice,PKR,suppress RAN translation by suppressing PKR phosphorylation
"Oc1ccc(/C=C/c2cc(O)cc(O)c2)cc1 [resveratrol, 3,5,4′-trihydroxy-trans-stilbene]",synaptophysin levels (synaptic loss),"FTD/ALS model mice [1]; hippocampus CA2-3 region and dentate gyrus (DG), FIG. 11",significantly restored
same,levels of G-quadruplex,"FTD/ALS model mice [1]; prefrontal cortex, FIG. 12",significantly reduced
same,levels of phosphorylated PKR,"FTD/ALS model mice [1]; prefrontal cortex, FIG. 13",significantly reduced
same,levels of poly-GA and poly-GP,"FTD/ALS model mice [1]; prefrontal cortex, FIG. 14",significantly reduced
same,levels of phosphorylated TDP-43,"FTD/ALS model mice [1]; prefrontal cortex, FIG. 15",significantly reduced
same,"cognitive function, Morris water maze",FTD/ALS model mice [2],significantly improved
same,expression of BDNF in the mouse brains,BDNF,elicited
same,solubility in water,[3],30 µg/mL
"CO[C@H]1/C=C/O[C@@]2(C)Oc3c(C)c(O)c4c(O)c(c(/C=N/N5CCN(C)CC5)c(O)c4c3C2=O)NC(=O)/C(C)=C\C=C\[C@H](C)[C@H](O)[C@@H](C)[C@@H](O)[C@@H](C)[C@H](OC(C)=O)[C@@H]1C [rifampicin, 3-(4-Methylpiperazinyliminomethyl)rifamycin SV]","memory performance (cognitive function), water maze test",[4],significantly improved
same,"cognitive function, Morris water maze",FTD/ALS model mice [2],"improved the cognitive function in the mice, but the effect was incomplete and not significant"
same,inhibition of G-quadruplex formation,[5],failed to inhibit
same,levels of phosphorylated PKR,phospho-PKR (Thr446),significantly attenuated
same,DPR cytoplasmic inclusions (DPRs and p62 double positive),[6],significantly attenuated
same,TDP-43 oligomer cytoplasmic inclusions (pTDP-43 and F11G3 double positive),[6],significantly attenuated
same,formation of RNA foci (G-quadruplex and hnRNP H double positive),[6],significantly attenuated
